How the values were obtained:
[1] = system: whole blood; experiment: ODC (P50) of whole blood; conditions: 6:1 molar ratio of compound to hemoglobin (120 μM)
Method: The ODC of hemoglobin was measured with a HEMOX analyzer (TCS Scientific Corporation) at 37° C. For experiments with purified hemoglobin, hemoglobin (20 μM as tetramer) was dissolved in DPBS and antifoam (0.2 vol %, Catalog No. AFA-25, TCS Scientific Corporation) was added to prevent foaming of the sample. Compounds were prepared in DMSO stock solutions then added to hemoglobin. […] For experiments with RBCs, blood was drawn from volunteers into EDTA tubes. The blood was centrifuged for 15 min at 3,000 rpm at 4° C. The supernatant was discarded, and RBCs were washed three times with DPBS, pH 7.4 by dilution to 50% hematocrit.

[2] = system: red blood cells from sickle cell disease patients (SRBCs); conditions: reported value; cited from earlier work
[3] = system: red blood cells; experiment: ODC of washed red blood cells in Hemox solution; assay type: cell-based, human; conditions: for P50 of red blood cells: mixed 1 h at 37° C.
Description: For the reduction of P50, less amount of 1 was needed, and the reaction time of 1 with hemoglobin was faster than NEM and 5HMF.

[4] = target: T1, hemoglobin (Homo sapiens, UniProt P68871+P69905); experiment: Hemoglobin oxygen-binding assay (oxyHb %, plate format); assay type: biochemical; conditions: effector to hemoglobin tetramer 6 to 1 (mol/mol)
T1 construct: from tissue; host or cells: outdated donated human red blood cells (hemolysate supernatant, dialysed against DPBS)
Method: Test compounds (0.75 μL, 10 mM in DMSO) were added to the central area of two 384 deep well plates forming compound plates. DPBS was used as the solvent for myo-inositol hexaphosphate (IHP) and N-ethylmaleimide (NEM) (10 mM). To prevent oxidation of hemoglobin during the experiment, glucose-6-phosphate (0.4 mg/mL), glucose-6-phosphate dehydrogenase (1.0 U/mL), nicotinamide adenine dinucleotide phosphate (NADP, 0.05 mg/mL), ferredoxin (0.01 mg/mL), ferredoxin-NADP reductase (0.01 U/mL) and catalase (2×10^3 U/mL) were added to hemoglobin to produce the Hayashi reducing system, which is described in detail in Hayashi et al., Biochemica et Biophysica Acta, 1973, 310, 309-316. […]
The alteration of hemoglobin's oxygen-binding affinity by the test compounds binding to hemoglobin was evaluated in an environment where the fractional oxygen pressure (FO2) could be precisely measured and controlled. […] To confirm the allosteric effect of the test compounds, ODC of hemoglobin was measured in the presence and absence of each compound. […]
The ability of small molecules to alter the oxygen affinity of hemoglobin was determined by measuring the fraction of oxygenated hemoglobin (oxyHb %) and oxidized hemoglobin (metHb %) using spectrophotometry under three (high, medium, and low oxyHb saturation) conditions. […]

T1 sequence (P68871 2-147 limits assumed): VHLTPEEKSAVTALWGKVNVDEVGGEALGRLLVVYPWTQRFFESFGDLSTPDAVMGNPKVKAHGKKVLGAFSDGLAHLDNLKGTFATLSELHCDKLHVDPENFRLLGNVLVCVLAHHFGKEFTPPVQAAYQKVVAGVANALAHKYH
T1 sequence (P69905 2-142 limits assumed): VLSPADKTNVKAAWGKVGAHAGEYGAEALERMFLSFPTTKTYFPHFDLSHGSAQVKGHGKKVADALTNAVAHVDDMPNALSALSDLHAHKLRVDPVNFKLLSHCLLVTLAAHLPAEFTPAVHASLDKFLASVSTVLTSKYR

Row | SMILES | P50 of whole blood [1] | concentration required to reduce sickling of hypoxic SS RBCs by nearly 90% [2] | P50 of red blood cells ([3]; 2 mM) | P50 of RBCs ([3]; Compound 1 at 120 μM (6:1 to Hb tetramer), HEMOX solution, 5 vol % DMSO, 10 min at 37° C.) | change of oxyHb % [4] | P50 of red blood cells ([3]; 400 μM)
1 | O=Cc1ccc(CO)o1 [Compound 5-HMF, 5-(Hydroxymethyl)furfural] | 26±0.5 Torr | 5 mM | 9 Torr | 27±0.5 Torr | – | –
2 | O=P(O)(O)O[C@H]1[C@H](OP(=O)(O)O)[C@@H](OP(=O)(O)O)[C@H](OP(=O)(O)O)[C@@H](OP(=O)(O)O)[C@H]1OP(=O)(O)O [IHP, myo-inositol hexaphosphate] | – | – | – | – | decrease | –
3 | CCN1C(=O)C=CC1=O [NEM, N-ethylmaleimide] | 20±1.1 Torr | – | – | – | increase | 8 Torr
